Laboratory results as given in ChEMBL document CHEMBL1146296, “Influence of an additional 2-amino substituent of the 1-aminoethyl pharmacophore group on the potency of rimantadine against influenza virus A” (Bioorg Med Chem Lett, 2007).
pEC50: −log10 of the molar value. Activity calls are given as the source filed them. No cut-off for these calls is given here.

Columns and labels:
[1] = tested on: Influenza A virus; assay: Antiviral activity against influenza A virus (H3N2)-induced cytopathogenicity in MDCK cells by MTS method; type: functional, organism-based
[2] = tested on: MDCK; assay: Cytotoxicity against MDCK cells; type: cell-based, Canis lupus familiaris; conditions: dog
[3] = tested on: Influenza A virus; assay: Antiviral activity against influenza A virus (H3N2) assessed as inhibition of viral replication; type: functional, organism-based
[4] = tested on: Influenza B virus; assay: Antiviral activity against influenza B virus; type: functional, organism-based

Compound	pEC50 [1]	MTC [2] [µM]	Activity [3]	Activity [4]
C1CCC(C23CC4CC(CC(C4)C2)C3)NC1.Cl (stereo not drawn)	4.15	978		
Cl.NC12CC3CC(CC(C3)C1)C2 [AMANTADINE HYDROCHLORIDE]	4.31	> 1333		
C1CNC(C23CC4CC(CC(C4)C2)C3)CN1.O=C(O)/C=C\C(=O)O (stereo not drawn)	4.62	> 553	Active	inactive
CN1C(=O)NCC1C12CC3CC(CC(C3)C1)C2 (stereo not drawn)	3.57	> 1067		inactive
C1CNC(C23CC4CC(CC(C4)C2)C3)C1.Cl (stereo not drawn)	4.29	1035		
O=C1CNC(C23CC4CC(CC(C4)C2)C3)CN1 (stereo not drawn)	4.04	> 1067	Active	inactive
CN1CCN(C)C(C23CC4CC(CC(C4)C2)C3)C1.O=C(O)/C=C\C(=O)O (stereo not drawn)	3.45	> 520		inactive
CC(N)C12CC3CC(CC(C3)C1)C2.Cl (stereo not drawn) [RIMANTADINE HYDROCHLORIDE]	4.72	> 1160		
CN1CC(C23CC4CC(CC(C4)C2)C3)N(C)C1=O (stereo not drawn)	3.97	1007		inactive
CNC(CN)C12CC3CC(CC(C3)C1)C2.O=C(O)/C=C\C(=O)O (stereo not drawn)	4.25	> 568	Active	inactive
CN1CCNCC1C12CC3CC(CC(C3)C1)C2.O=C(O)/C=C\C(=O)O (stereo not drawn)	3.71	> 535		inactive
CN1CC(=O)NCC1C12CC3CC(CC(C3)C1)C2 (stereo not drawn)	3.22	> 1007		inactive
NCC(N)C12CC3CC(CC(C3)C1)C2.O=C(O)/C=C\C(=O)O (stereo not drawn)	4.74	> 586	Active	inactive
O=C1NCC(C23CC4CC(CC(C4)C2)C3)N1 (stereo not drawn)	4.14	> 1135	Active	inactive
